We go through six compounds from US20070275935A1, “Estratriene Derivatives” (priority 2003, published 2007).

One test concerns Pulmonary fibroblasts. The test is described as follows: bFGF-induced proliferation of human pulmonary fibroblasts. Type of test: cell-based. Particulars: for pFib - bFGF: inhibition of bFGF (300 pM)-induced proliferation, mean and SEM, minimum 3 experiments, 1 μM, * not defined; for effect on bFGF-induced increase in pulmonary fibroblast cell number, in words: concentration range of 1 to 1000 nM, bFGF 300 pM, 48 h. As for the experimental part: Samples of parenchyma from human lung transplant recipients were dissected away from the pleura, chopped into fragments of less than 1 mm^2 and allowed to adhere to plastic culture dishes in a minimal volume of DMEM containing serum (10%) and antibiotics (as used for HASM culture). After the tissue fragments had adhered to the base of the dish additional medium was added. Medium was changed twice weekly until an explant culture formed, at which time the tissue fragments were removed and the cells were passaged in a 1:3 split ratio by exposure to trypsin weekly to produce pulmonary fibroblast cultures.
Pulmonary fibroblasts were cultured in DMEM, serum-deprived for 24 h, in the presence or absence of the test compounds, and then stimulated with 300 pM bFGF for 48 h before harvest and counting of viable cells. An increase pulmonary fibroblast cell number was prevented by 4NOM over the concentration range of 1 to 1000 nM.
A range of the disclosed compounds was subsequently examined using the above assay system, and the results are summarized in Column E of Table 4. […] The proliferation of parenchymal fibroblasts is important in the development of pulmonary fibrosis.

Test [1] concerns type II airway epithelial cell line, A549. Description: Proliferation of A549 cells in response to 5% FCS. Type of test: cell-based, human. The settings on record: for IC50: Homo sapiens, A549, read-out: A549 PIC50 (converted); for IC50 / A549 PIC50: proliferation in response to 5% FCS, pIC50 of 4.00 = inactive; for effect on proliferation of A549 cells, in words (FIG. 2): 5% FCS, 48 h.

The subject of test [2] is Human airway smooth muscle (HASM) cells. The test is described as follows: bFGF-induced proliferation of human airway smooth muscle (HASM) cells, cell number after 48 h. Type of test: cell-based. The settings on record: bFGF 300 pM, mean ± SEM (n), without analogue 135.8 ± 3.7. Here is the method: Human airway smooth muscle (HASM) cells were cultured from macroscopically normal bronchi (0.5-2 cm diameter) obtained from lung resection or heart-lung transplant specimens provided by the Alfred Hospital (Melbourne) according to methods published in detail previously (Fernandes et al., 1999).
Approximately 0.1 g of smooth muscle was stripped from the wall of the bronchus for each cell culture. Dissected tissue was immersed in Dulbecco's modified Eagle's medium (DMEM) (Flow Laboratories, Scotland), supplemented with 100 U/mL penicillin G (CSL, Australia) and 100 ug/mL streptomycin (CSL, Australia). The tissue was rinsed in phosphate buffered saline (PBS; Oxoid, England) and the airway smooth muscle was chopped into 2 mm^3 pieces and digested for 2 hours in DMEM containing elastase (0.5 mg/mL: Worthington Biochemical, USA) followed by a 12 hour incubation in DMEM containing collagenase (1 mg/mL) (Worthington Biochemical, USA), at 37° C. with agitation.
The resulting cell suspension was centrifuged and washed three times in phosphate buffered saline (PBS). Following the last centrifugation step, the cells were resuspended in 25 mL of DMEM supplemented with L-glutamine (2 mM: Sigma, USA), penicillin G (100 U/mL), streptomycin (100 μg/mL), amphotericin B (2 μg/mL: Wellcome, UK) and heat-inactivated FCS (10% v/v: CSL, Australia) and seeded into 25 cm^2 culture flasks. The primary isolates were incubated for 7 to 14 days to reach confluence.
Cells were harvested weekly by 10 min exposure to trypsin (0.5%: CSL, Australia) and EDTA (1 mM in PBS: BDH, Australia) and passaged at a 1:3 ratio into 75 cm^2 flasks.
The activity of the compounds has been established in cell culture by exploring their effects on mitogen-induced increases in cell number. […]
Data are expressed as a percentage of the cell number in vehicle treated wells and are presented as the mean and standard error of the mean.

The test system of test [3] is bovine aortic vascular smooth muscle. The test is described as follows: bFGF-induced proliferation of bovine aortic vascular smooth muscle. Type of test: cell-based. The settings on record: 3 μM. As for the experimental part: Experiments were also carried out with bovine aortic vascular smooth muscle with a more limited set of compounds.
Test [4] has as its system GM-CSF production by Human Airway Smooth Muscle Cells. The test is described as follows: Interleukin-1α-mediated GM-CSF production by HASM cells (ELISA). Type of test: cell-based. The settings on record: for HASM - GM-CSF: inhibition of interleukin-1α (1 ng/ml)-mediated GM-CSF production, concentration not given, * not defined. (In general: An ELISA detects its analyte on a solid surface through an enzyme-linked reagent.)

Regarding `C[C@]12CC[C@@H]3c4ccc(O)cc4CC[C@H]3[C@@H]1CC/C2=N\OCc1cccc([N+](=O)[O-])c1` [CP-DM-3-102, estrone-17-(3-nitrobenzyl)oxime], the “pFib - bFGF” value with Pulmonary fibroblasts is 96 ± 4*. In addition, the IC50 in test [1] is 12.6 µM.

In the case of `COc1cc2c(cc1O)C(=NOCc1ccc([N+](=O)[O-])cc1)C[C@@H]1[C@@H]2CC[C@]2(C)C(=NO)CC[C@@H]12` [CP-DM-3-91, 2-methoxy-6-(4-nitrobenzyloxy)iminoestrone-17-oxime], in test [2] (analogue 1 μM), the “Cell number (% control) bFGF” value is given as 111.1 ± 10.9 (4) % control. Besides, the “reduction of bFGF (300 pM) induced proliferation” value (“reduction of bFGF” below) in test [3] is 93±4%. In test [4], the “HASM - GM-CSF” value is recorded as 43 ± 11*. Further, in the test on Pulmonary fibroblasts, the “effect on bFGF-induced increase in pulmonary fibroblast cell number, in words” value is on record as “prevented” and the “pFib - bFGF” value is 49 ± 14*. For the same compound, in the test on Pulmonary fibroblasts (listed as 4NOM), the “pFib - bFGF” value is “significant inhibitory activity”. Moreover, the “A549 PIC50” value in test [1] is listed as 4.99.

With `COc1cc2c(cc1O)C(=NOCc1ccc([N+](=O)[O-])cc1)C[C@@H]1[C@@H]2CC[C@]2(C)[C@@H](O)CC[C@@H]12` [CP-DM-2-11-7, 2-methoxy-6-(4-nitrobenzyloxy)iminoestradiol], the “Cell number (% control) bFGF” value in test [2] (analogue 1 μM) is recorded as 116.6 ± 6.6 (14) % control. The “reduction of bFGF” value in test [3] worked out at 75±14%. Further, in test [4], the “HASM - GM-CSF” value is 45 ± 8*. Also, the “reduction of GM-CSF production, in words (FIG. 7)” value in test [4] (interleukin-1α 1 ng/ml) is listed as “reduced GM-CSF production to greater extent than 2MEO”. In addition, in the test with Pulmonary fibroblasts, the “effect on bFGF-induced increase in pulmonary fibroblast cell number, in words” value is “significantly reduced the proliferative response” and the “pFib - bFGF” value was 63 ± 15*. Besides, the “effect on proliferation of A549 cells, in words (FIG. 2)” value in test [1] (concentrations below 3 μM) was “no detectable effect”. For the same compound, in test [1], the “A549 PIC50” value is listed as 4.89.

For `COc1cc2c(cc1O)/C(=N/OCc1ccc(SC(F)(F)F)cc1)C[C@@H]1[C@@H]2CC[C@]2(C)[C@@H](O)CC[C@@H]12` [CP-DM-4-65, 2-methoxy-6-(4-trifluoromethylthiobenzyloxy)iminoestradiol], the “HASM - GM-CSF” value in test [4] stood at 28 ± 31. In the test with Pulmonary fibroblasts, the “pFib - bFGF” value worked out at 32 ± 23. Moreover, the IC50 in test [1] was 3.16 µM.

As for `COc1cc2c(cc1O)/C(=N/OCc1cc(F)cc(F)c1)C[C@@H]1[C@@H]2CC[C@]2(C)[C@@H](O)CC[C@@H]12` [CP-DM-4-35, 6-(3,5-difluorobenzyloxy)imino-2-methoxyestradiol], in the test with Pulmonary fibroblasts, the “pFib - bFGF” value is 22 ± 14. Further, the IC50 in test [1] was 3.16 µM.

Regarding `COc1cc2c(cc1O)CC[C@@H]1[C@@H]2CC[C@]2(C)[C@@H](O)CC[C@@H]12` [2-methoxyestradiol, reference compound], in test [2] (analogue 10 μM), the “Cell number (% control) bFGF” value is given as 87.5 ± 13.8 (4) % control. For the same compound, the “reduction of bFGF” value in test [3] amounted to 87±6%. Also, the “HASM - GM-CSF” value in test [4] is recorded as 29 ± 10*. Also, the “pFib - bFGF” value with Pulmonary fibroblasts is 62 ± 20*. Moreover, the “effect on proliferation of A549 cells, in words (FIG. 2)” value in test [1] (concentration not given) is recorded as “effective inhibitor”. Also, the “A549 PIC50” value in test [1] amounted to 6.00.
